Values after ≈ are worked out from the molar mass of the structure shown.
Test system: Neisseria gonorrhoeae, GC525 (NG-2888)
Experiment: in-vitro antibacterial activity, microbroth dilution MIC susceptibility testing
Format: cell-based
Conditions: Neisseria gonorrhoeae, microbroth dilution in gonococcal broth, 20-24 hours at 35 C, lowest concentration preventing visible growth, read-out: MIC
Experimental: The in-vitro antibacterial activity of selected compounds was determined against a stain of Neisseria gonorrhoeae, GC525 (NG-2888), which is described by Rouquette-Loughlin et al, in Journal of Bacteriology, February 2003, p. 1101-1106, at p. 1103. In general, minimum inhibitory concentration (MIC) susceptibility testing followed procedures recommended by the National Committee for Clinical Laboratory Standards (NCCLS^1-2) or followed the descriptions described below:
Neisseria gonorrhoeae strains were grown on Chocolate Agar II plates (BBL—Becton Dickinson Microbiology Systems, Cockeysville, Md.) and incubated at 35° C. in a humidified 5% CO2 incubator (Form a Scientific, Marietta Ohio). For microbroth dilution MIC testing, N. gonorrhoeae were tested in gonococcal broth (GCB):
Gram stains were also utilized. Permanent Stock Culture Collection
Bacterial stock cultures are stored as frozen suspensions at −70 C. N. gonorrhoeae cultures are suspended in inactivated Horse Serum (Colorado Serum Company, Denver, Colo.) containing 7.5% glucose prior to snap freezing in a dry ice/ethanol bath.
Preparation of Standardized Test Inocula and Plate Inoculation
Frozen stock cultures were used as the initial source of organisms for performing microbroth dilution MIC testing. Stock cultures were passed on their respective growth medium at least one growth cycle (18-24 hours) prior to their use. Bacterial culture suspensions were prepared directly from Chocolate Agar II plates into 10 mL cation-adjusted Mueller-Hinton Broth (CAMHB, BBL, # BB215069). Before use, cultures were adjusted to an optical density value of 1.6-2 on a Perkin-Elmer Lambda EZ150 Spectrophotometer (Wellesley, Mass.) set at a wavelength of 600 nm. Random cultures were plated for validation of actual colony counts. The adjusted cultures were diluted 400-fold (0.25 mL inoculum+100 mL GCB) into gonococcal broth producing a starting inoculum of approximately 5×10^5 cfu/mL. These cultures were inoculated into test plates (100 uL/well) using a Biomek® FX workstation (Beckman Coulter Inc., Fullerton, Calif.). The inoculated plates were placed in stacks of no more than 4 and covered with an empty plate. Plates were incubated for 20-24 hours at 35 C in a humidified CO2 incubator.
Test Compound (“Drug”) Preparation
Drug stock solutions (2 mg/mL in DMSO) were prepared on the day of testing. Drugs were weight corrected for assay content where necessary.
Drug Dilution Tray Preparation
Microbroth dilution stock plates were prepared in two dilution series, 64-0.06 ug drug/mL and 1-0.001 ug drug/mL. For the high concentration series, 200 uL of stock solution (2 mg/mL) was added to duplicate rows of a 96-well plate. This was used as the first well in the dilution series. Serial two-fold decremental dilutions were made using a BioMek FX robot (Beckman Coulter Inc., Fullerton, Calif.) with 10 of the remaining 11 wells, each of which contained 100 uL of the appropriate solvent/diluent. Row 12 contained solvent/diluent only and served as the control. For tube one of the low concentration series, 200 uL of a 31.25 ug/mL stock was added to duplicate rows of a 96-well plate. Serial two-fold dilutions were made as described above.
Daughter plates were spotted (3.2 uL/well) from the stock plates listed above using the BioMek FX robot and were inoculated with organism (100 uL/well) as described previously.
After incubation, the degree of growth in each well was read visually with the aid of a Test Reading Mirror (Dynatech Lab 220-16, Dynex Technologies, Chantilly, Va.). 96-well test plates are read in a darkened room with a single light shining from above. The MIC is the lowest concentration of drug that prevents macroscopically visible growth under the conditions of the test. […] If MIC values in duplicate tests differ by 1 well (two-fold), the […] value is reported. If duplicate tests vary by 2 dilutions (four-fold), the middle value is reported.

Structure (SMILES) | MIC [µg/mL]
CCNC(=O)Nc1nc2cc(-c3cccnc3)cc(C(=O)N[C@@H](C)c3ccccc3)n2n1 [Example 42, (S)-2-(3-Ethyl-ureido)-7-pyridin-3-yl-[1,2,4]triazolo[1,5-a]pyridine-5-carboxylic acid(1-phenyl-ethyl)-amide] | 8 (≈ 18.6 µM)
CCNC(=O)Nc1nc2cc(-c3cccnc3)cc(C(=O)NCC(C)(C)C)n2n1 [Example 43, 2-(3-Ethyl-ureido)-7-pyridin-3-yl-[1,2,4]triazolo[1,5-a]pyridine-5-carboxylic acid (2,2-dimethyl-propyl)-amide] | > 64
CCNC(=O)Nc1nc2cc(-c3cccnc3)cc(C(=O)NC3CCOC3)n2n1 (centres unmarked) [Example 45, 2-(3-Ethyl-ureido)-7-pyridin-3-yl-[1,2,4]triazolo[1,5-a]pyridine-5-carboxylic acid (tetrahydro-furan-3-yl)-amide] | > 64
CCNC(=O)Nc1nc2cc(-c3cccnc3)cc(C(=O)NCCC3CCCN3C)n2n1 (centres unmarked) [Example 46, 2-(3-Ethyl-ureido)-7-pyridin-3-yl-[1,2,4]triazolo[1,5-a]pyridine-5-carboxylic acid [2-(1-methyl-pyrrolidin-2-yl)-ethyl]-amide] | 1 (≈ 2.29 µM)
CCNC(=O)Nc1nc2cc(-c3cccnc3)cc(C(=O)NCCCN3CCCC3)n2n1 [Example 47, 2-(3-Ethyl-ureido)-7-pyridin-3-yl-[1,2,4]triazolo[1,5-a]pyridine-5-carboxylic acid (3-pyrrolidin-1-yl-propyl)-amide] | 16 (≈ 36.7 µM)
CCNC(=O)Nc1nc2cc(-c3cccnc3)cc(C(=O)N[C@H](C)c3ccccc3)n2n1 [Example 48, (R)-2-(3-Ethyl-ureido)-7-pyridin-3-yl-[1,2,4]triazolo[1,5-a]pyridine-5-carboxylic acid(1-phenyl-ethyl)-amide] | 16 (≈ 37.3 µM)
CCNC(=O)Nc1nc2cc(-c3cccnc3)cc(C(=O)N3CCC(N(CC)CC)C3)n2n1 (centres unmarked) [Example 49, 1-[5-(3-Diethylamino-pyrrolidine-1-carbonyl)-7-pyridin-3-yl-[1,2,4]triazolo[1,5-a]pyridin-2-yl]-3-ethyl-urea] | > 64
CCNC(=O)Nc1nc2cc(-c3cccnc3)cc(C(=O)Nc3nccs3)n2n1 [Example 50, 2-(3-Ethyl-ureido)-7-pyridin-3-yl-[1,2,4]triazolo[1,5-a]pyridine-5-carboxylic acidthiazol-2-ylamide] | 2 (≈ 4.9 µM)
CCNC(=O)Nc1nc2cc(-c3cccnc3)cc(C(=O)N(C)Cc3nnc(C)o3)n2n1 [Example 51, 2-(3-Ethyl-ureido)-7-pyridin-3-yl-[1,2,4]triazolo[1,5-a]pyridine-5-carboxylic acid methyl-(5-methyl-[1,3,4]oxadiazol-2-ylmethyl)-amide] | 64 (≈ 147 µM)
CCNC(=O)Nc1nc2cc(-c3cccc(C)c3)cc(C(=O)NCC)n2n1 [Example 52, 2-(3-Ethyl-ureido)-7-m-tolyl-[1,2,4]triazolo[1,5-a]pyridine-5-carboxylic acid ethylamide] | 4 (≈ 10.9 µM)
CCNC(=O)Nc1nc2cc(-c3ccc(F)c(C)c3)cc(C(=O)NCC)n2n1 [Example 53, 2-(3-Ethyl-ureido)-7-(4-fluoro-3-methyl-phenyl)-[1,2,4]triazolo[1,5-a]pyridine-5-carboxylic acid ethylamide] | 16 (≈ 41.6 µM)
CCNC(=O)Nc1nc2cc(-c3ccccc3OC)cc(C(=O)NCC)n2n1 [Example 54, 2-(3-Ethyl-ureido)-7-(2-methoxy-phenyl)-[1,2,4]triazolo[1,5-a]pyridine-5-carboxylic acid ethylamide] | > 64
CCNC(=O)Nc1nc2cc(-c3ccc(F)c(F)c3)cc(C(=O)NCC)n2n1 [Example 55, 7-(3,4-Difluoro-phenyl)-2-(3-ethyl-ureido)-[1,2,4]triazolo[1,5-a]pyridine-5-carboxylic acid ethylamide] | 2 (≈ 5.15 µM)
CCNC(=O)Nc1nc2cc(-c3ccc4c(c3)CCO4)cc(C(=O)NCC)n2n1 [Example 57, 7-(2,3-Dihydro-benzofuran-5-yl)-2-(3-ethyl-ureido)-[1,2,4]triazolo[1,5-a]pyridine-5-carboxylic acid ethylamide] | 2 (≈ 5.07 µM)

From patent publication US7524860B2, “Antibacterial agents” (Pfizer Inc., priority 2004, dated 2009)
